Literature values in patent US4925831A, “Aminoalkyl naphthalenediols as host resistance enhancers against viral infection” (priority 1987, dated 1990).
Entries after “also recorded” stand apart in the source; their conditions may differ. Read-outs that look alike come from different tables or passages of the source.

Assays:
AIDS or ARC patients = conditions: result in words
[1] = not given; remark: listed apart in the source
[2] = system: HIV reverse transcriptase; conditions: result in words
HIV = conditions: result in words
[3] = in vivo

CO[C@H]1/C=C/O[C@@]2(C)Oc3c(C)c(O)c4c(c3C2=O)C2=NC3(CCN(CC(C)C)CC3)NC2=C(NC(=O)/C(C)=C\C=C\[C@H](C)[C@H](O)[C@@H](C)[C@@H](O)[C@@H](C)[C@H](OC(C)=O)[C@@H]1C)C4=O [Ansamycin, rifabutin]
clinical efficacy (AIDS or ARC patients): some efficacy in treating AIDS patients with an opportunistic infection caused by the bacterium Mycobacterium aviumintracellulare

Cc1cn([C@H]2C[C@H](N=[N+]=[N-])[C@@H](CO)O2)c(=O)[nH]c1=O [Azidothymidine, 3'-azido-3'-deoxythymidine]
half-life in the body (in vivo): relatively short half-life in the body | oral absorption (oral): Well absorbed orally | adverse / toxic effects, tolerability ([1]; clinical, result in words): some toxicity, with anemia and headaches | adverse / toxic effects, tolerability ([1]; clinical, result in words, listed as AZT): virtually no toxic effects | clinical efficacy (AIDS or ARC patients): promise in prolonging lives of patients with AIDS or AIDS-related complex (ARC)

CC(C)(N1CC1C#N)N1CC1C(N)=O (stereo not shown) [Azimexon]
adverse / toxic effects, tolerability ([1]; clinical, result in words): only toxic effect was mild hemolysis | clinical efficacy (AIDS or ARC patients): improvements in symptoms and immune function in patients with ARC but not AIDS

CC(C)(S)[C@@H](N)C(=O)O [D-Penicillamine, 3-mercapto-D-valine]
adverse / toxic effects, tolerability ([1]; human, in vivo): temporarily depressed T cell levels in 13 AIDS patients | clinical efficacy (AIDS or ARC patients): Inhibits HIV reproduction in humans; also recorded: suppressed the virus

O=C(O)P(=O)(O)O [Foscarnet, trisodium phosphonoformate]
adverse / toxic effects, tolerability ([1]; human, in vivo): serious side effects | inhibition of HIV reverse transcriptase [2]: Inhibits HIV reverse transcriptase activity in vitro at levels pharmacologically acceptable in vivo

CC(=O)Nc1ccc(C(=O)O)cc1.CC(=O)Nc1ccc(C(=O)O)cc1.CC(=O)Nc1ccc(C(=O)O)cc1.CC(O)CN(C)C.CC(O)CN(C)C.CC(O)CN(C)C.O=c1[nH]cnc2c1ncn2[C@@H]1O[C@H](CO)[C@@H](O)[C@H]1O [Inosine pranobex]
clinical efficacy (AIDS or ARC patients): improve immune function in ARC patients

NC(=O)c1ncn([C@@H]2O[C@H](CO)[C@@H](O)[C@H]2O)n1 [Ribavirin, 1β-D-ribofuranosyl-1,2,4-triazole-3-carboxamide]
clinical efficacy (AIDS or ARC patients): inhibited viral replication and improved immune function in AIDS patients

Cc1ccc(C(=O)Nc2ccc(S(=O)(=O)O)c3cc(S(=O)(=O)O)cc(S(=O)(=O)O)c23)cc1NC(=O)c1cccc(NC(=O)Nc2cccc(C(=O)Nc3cc(C(=O)Nc4ccc(S(=O)(=O)O)c5cc(S(=O)(=O)O)cc(S(=O)(=O)O)c45)ccc3C)c2)c1 [Suramin]
inhibition of HIV reverse transcriptase [2]: Potent inhibitor of HIV reverse transcriptase | clinical efficacy (AIDS or ARC patients): little or no evidence of clinical improvement or immunologic recovery

ammonium 21-tungsto-9-antimoniate [HPA-23]
effect on HIV growth / infectivity (HIV): some tendency to check the growth of HIV | clinical efficacy (AIDS or ARC patients): no therapeutic benefit has been documented in AIDS patients

krestin
toxic side effects [3]: undesirable toxic side effects, such as granulomatous inflammation

lentinan
toxic side effects [3]: undesirable toxic side effects, such as granulomatous inflammation

α-Interferon
effect on HIV growth / infectivity (HIV): Checks the growth of HIV in vitro | clinical efficacy (AIDS or ARC patients): induced tumor regression in some AIDS-related Kaposi's sarcoma cases
